Laboratory results taken from patent US12472175B2, “Methods of treating venetoclax-resistant acute myeloid leukemia” (OREGON HEALTH & SCIENCE UNIVERSITY, priority 2019, dated 2025).

Key:
[1] = tested on: MOLM-13 and MV4;11 cells with TP53 and BAX KOs; assay: Small molecule inhibitor panel screen, changes common to modified MOLM-13 and MV4;11 cells; type: cell-based, Human; conditions: for sensitivity to NTRK/ALK/ROS1 inhibitors: cells with TP53 KO; for change in drug sensitivity common to modified MOLM-13 and MV4;11 cells: TP53 and BAX KOs relative to non-targeting control; for sensitivity to FLT3 inhibitors: TP53 inactivated MV4;11 and MOLM-13 cells
Experimental: Small-molecule inhibitors, purchased from LC Laboratories (Woburn, Mass., USA) and Selleck Chemicals (Houston, Tex., USA), were reconstituted in DMSO and stored at −80° C. Inc. Inhibitors were distributed into 384-well plates prepared with a single agent/well in a 7-point concentration series ranging from 10 μM to 0.04 μM for each drug. […] After three days of culture at 37° C. in 5% CO2, MTS reagent (CellTiter96 AQueous One; Promega Madison, Wis., USA) was added, optical density was measured at 490 nm, raw absorbance values were adjusted to a reference blank value, and then used to determine cell viability (normalized to untreated control wells). Prizm software(GraphPad) was used to perform non-linear regression analyses on normalized values for the determination of IC50.
FIG. 7A. MOLM-13 and MV4;11 cells, transduced with indicated sgRNAs/Cas9 viruses, were screened with a panel of inhibitors targeting various molecular pathways and assessed using the cell survival method described in FIG. 2A.
FIG. 7B. Analyses of FLT3 inhibitor sensitivities, in MOLM-13 and MV4;11 parental and Crispr-modified cells, as indicated. Drug sensitivity was measured as described in FIG. 2A, with IC50 measured in triplicate.

[2] = tested on: MOLM-13 cells; assay: Cell viability (MTS) drug sensitivity assay in MOLM-13 cells transduced with sgRNA/Cas9 viruses; type: cell-based, Human
Experimental: (§1) Small-molecule inhibitors, purchased from LC Laboratories (Woburn, Mass., USA) and Selleck Chemicals (Houston, Tex., USA), were reconstituted in DMSO and stored at −80° C. Inc. Inhibitors were distributed into 384-well plates prepared with a single agent/well in a 7-point concentration series ranging from 10 μM to 0.04 μM for each drug. The final concentration of DMSO was ≤1.1% in all wells. Cells were seeded into 384-well assay plates at 1,000 cells/well in RPMI-1640 media supplemented with fetal bovine serum (15%), L-glutamine, penicillin-streptomycin and antimycotic. After three days of culture at 37° C. in 5% CO2, MTS reagent (CellTiter96 AQueous One; Promega Madison, Wis., USA) was added, optical density was measured at 490 nm, raw absorbance values were adjusted to a reference blank value, and then used to determine cell viability (normalized to untreated control wells). Prizm software(GraphPad) was used to perform non-linear regression analyses on normalized values for the determination of IC50.
FIG. 2. A. Confirmation of genes conferring venetoclax resistance in MOLM-13 and MV4;11 cells and correlations with changes in apoptotic gene transcription in AML patients. MOLM-13 (FIG. 2A) or MV4;11 (FIG. 2B) cells were transduced with lentiviruses carrying single sgRNA/Cas9 constructs targeting TP53, BAX, PMAIP1, FAU or control (non-targeting; NT_g). 10 days post transduction, venetoclax sensitivity was measured in triplicate by colorimetric MTS assay using a 7-point concentration range (4 nM to 10 μM). Percentages of viable cells, after normalization to untreated controls, were fit using non-linear regression analyses; mean and standard errors are shown. MOLM-13P, parental MOLM-13 cells. MV4;11P, parental MV4;11 cells. FIG. 2C. Histogram (log 2 scale) summarizing changes in venetoclax sensitivity in parental MOLM-13 (black shaded), parental MV4;11 cells (grey shaded) or cells transduced with indicated sgRNA/Cas9 viruses., IC50 values were calculated by non-linear regression analyses in the cell viability assay described in panel A. FIG. 2D. […]

[3] = tested on: primary AML patient cells; assay: Ex vivo viability (MTS) drug sensitivity in primary AML patient samples (Beat AML); type: cell-based
Experimental: as §1
FIG. 3. Venetoclax sensitivity in AML patients inversely correlates with TP53 mutations and low expression of TP53 and BAX. 3A. Venetoclax (VEN) sensitivity in primary AML patient samples was measured in a viability assay across a concentration series ranging from 10 nM to 10 μM. AUC was determined for each sample and plotted relative to TP53 mutant status or TP53 expression levels. LE and HE denote lowest and highest quartile expression values, respectively. […] Within TP53 mutant groups, circles, triangles and square symbols denote loss of function (LOF), gain of function (GOF), and splice variants correspondingly. 3B. Correlation between gene expression levels from AML patient samples for TP53, BAX, PMAIP1 and TMEM14A to the respective venetoclax sensitivities represented by AUC (n=442; [36]). k, slope values generated by linear regression; r, Spearman coefficient; ****, p<0.0001; ns, not significant.
FIG. 12. Selected ex vivo drug sensitivity in AML patients' cells with mutant TP53 mutations. Histogram representing drug sensitivity, measured in primary AML patient cells ex vivo, in a viability MTS assay across a concentration series ranging from 10 nM to 10 μM, using 10,000 cells per well, in triplicates. […] Red bars denote median IC50 value.
(§2) FIG. 13. Analyses of Venetoclax sensitivities in CLL and AML patient cohorts ex vivo. Scatter plot of IC50 values are indicated. Mann-Whitney test was performed on IC50 values to ascertain statistical differences of mean. ***, p<0.001.

[4] = tested on: MOLM-13 cells; assay: Cell cycle profile by flow cytometry; type: cell-based, Human; conditions: TP53 KO cells, 100 nM entrectinib o/n
Experimental: FIG. 11. Entrectinib arrests cells with loss-of-function alleles for TP53 in G1. (FIG. 11A). Flow cytometry analyses of cells treated with 100 nM entrectinib o/n or vehicle alone. (FIG. 11B). Histogram representing cell cycle profiles of MOLM-13 cells transduced with sgRNAs/Cas9 viruses for non-targeting sgRNA (NT_g, n=3), TP53 sgRNA (TP53_g, n=3) or BAX (n=1); mean and standard deviation are shown where appropriate. (FIG. 11C). Cell viability assay assessing the sensitivity of the combination of entrectinib and venetoclax relative to sensitivities for each single agent on MOLM-13 cells transduced with sgRNAs/Cas9 viruses for TP53 sgRNA. Data were fit to a non-linear regression analysis with means and standard errors.

[5] = tested on: NTRK; assay: Western blot of NTRK and downstream MAPK phosphorylation; type: cell-based, Human; conditions: TP53 KO MOLM-13, entrectinib 100 nM overnight; not in control or parental cells
Experimental: Whole cells extracts from MOLM-13 or MV4;11 cells were prepared using 20 mM Tris-HCl (pH 7.5), 150 mM NaCl, 1 mM Na EDTA, 1 mM EGTA, 1% Triton, 2.5 mM sodium pyrophosphate, 1 mM beta-glycerophosphate, 1 mM Na3VO4, 1 μg/ml leupeptin (Cell Signalling), 1 mM PMSF, […] (Roche) and phosphatase inhibitor cocktail (Sigma-Aldrich). Proteins were resolved on 5-15% gradient gels (Biorad), transferred to PVDF membrane (Amersham) and subjected to immunoblotting using primary, followed by corresponding HRP-conjugated secondary antibodies (Promega), or biotinylated secondary antibody followed by streptavidin conjugated to HRP(TRK antibodies).
FIG. 7E. Western blot analyses of proteins extracted from MOLM-13 parental and MOLM-13 transduced with TP53 sgRNA/Cas9 viruses and treated overnight with venetoclax (100 nM), entrectinib (100 nM) or DMSO (vehicle), and identified with antisera to pan NTRK, phosphorylated NTRK, phosphorylated ERK1/2, ERK1/2, phosphorylated AKT, AKT and GAPDH.

[6] = tested on: CLL patient specimens; assay: Ex vivo venetoclax sensitivity in CLL patient cohort; type: cell-based
Experimental: as §1, §2

[7] = tested on: MOLM-13 cells; assay: Mitochondrial membrane potential (JC-1); type: cell-based, Human; conditions: TP53 and BAX mutant cells, CCCP alone
Experimental: Membrane depolarization was induced with CCCP. Cells were treated with 100 nM venetoclax or DMSO and with or without CCCP for 2 hrs prior to addition of the dye and flow cytometry.
FIG. 5. […] Histogram of a representative mitophagy experiment (n=2). […] FIG. 5B. […] FIGS. 5C, 5D. […] FIG. 5E. […] FIG. 5F. Cell viability assay in response to elesclomol.

[8] = tested on: MOLM-13 cells; conditions: cells with inactivation of TP53 and BAX, regardless of venetoclax treatment
Experimental: Cells were loaded in complete medium with 100 nM mitophagy Dye (Mitophagy Detection Kit, Dojindo Molecular Technologies) and 25 nM MitoTracker Deep Red, incubated for 30 min at 37° C. with serum free RPMI, washed and treated with DMSO or 100 nM venetoclax in DMSO for 2 hrs. […] Cells were washed, loaded with lyso dye for 30 min and observed for fluorescence. Mitophagy was detected as intense fluorescence of mitodye upon fusion with lysosomes, detected with lyso dye (488 nm(Ex), 550 nm(Em). 10,000 cells were collected for analysis using a BD FACS Arian™III on 10,000 acquired events. The data were analyzed post acquisition using FlowJo software (Tree Star, Ashland, Oreg., USA). 10,000 cells were acquired using channels 405-2-A(lyso dye), 561-3-A(Mitophagy dye) and 640-1-A(MitoTracker Dye).
Histogram of a representative mitophagy experiment (n=2). […] Histogram of a representative experiment from C (n=2) with 10,000 cells analyzed per sample.

[9] = sensitivity printed as IC50≥0.5 μM

Compound: Cc1cc(Nc2nc(N[C@@H](C)c3ncc(F)cn3)ncc2Cl)n[nH]1 [AZD1480]
- sensitivity to NTRK/ALK/ROS1 inhibitors [1]: sustained gain of sensitivity

Compound: Cc1c2c(nn1C)CSCc1cc(n(C)n1)CSc1cc(c3ccccc3c1)OCCCc1c(C(=O)O)n(C)c3c-2c(Cl)ccc13 [AZD5991]
- sensitivity to MCL1 inhibitor, TP53 KO ([2]; TP53 KO MOLM13 cells): significantly diminished

Compound: CS(=O)(=O)N1CCN(Cc2cc3nc(-c4cccc5[nH]ncc45)nc(N4CCOCC4)c3s2)CC1 [GDC-0941]
- change in drug sensitivity common to modified MOLM-13 and MV4;11 cells [1]: increased

Compound: COc1ccc(COc2ccc(Cc3cnc(N)nc3N)cc2OC)cc1 [GW-2580]
- sensitivity to NTRK/ALK/ROS1 inhibitors [1]: sustained gain of sensitivity

Compound: O=S(=O)(NCCNC/C=C/c1ccc(Br)cc1)c1cccc2cnccc12 [H-89]
- change in sensitivity between BAX-inactivated MV4;11 and MOLM-13 cells ([1]; BAX-inactivated, also overlapped in TP53 inactivated cells): concordant changes

Compound: Oc1cccc(-c2nc(N3CCOCC3)c3oc4ncccc4c3n2)c1 [PI-103]
- change in drug sensitivity common to modified MOLM-13 and MV4;11 cells [1]: increased

Compound: COCCn1c2c([n+](Cc3cnccn3)c1C)C(=O)c1ccccc1C2=O [YM-155]
- change in drug sensitivity common to modified MOLM-13 and MV4;11 cells [1]: increased

Compound: CC1(COc2ccc3c(c2)ncn3-c2ccc3cccc(N4CCC(N)CC4)c3n2)COC1 [crenolanib]
- sensitivity to FLT3 inhibitors [1]: loss of sensitivity

Compound: C[C@@H](Oc1cc(-c2cnn(C3CCNCC3)c2)cnc1N)c1c(Cl)ccc(F)c1Cl [crizotinib]
- sensitivity to NTRK/ALK/ROS1 inhibitors [1]: sustained gain of sensitivity

Compound: CN(NC(=O)CC(=O)NN(C)C(=S)c1ccccc1)C(=S)c1ccccc1 [elesclomol]
- cell viability in response to elesclomol ([2]; TP53 and BAX KO cells): still susceptible to cell death

Compound: CN1CCN(c2ccc(C(=O)Nc3n[nH]c4ccc(Cc5cc(F)cc(F)c5)cc34)c(NC3CCOCC3)c2)CC1 [entrectinib]
- sensitivity to NTRK/ALK/ROS1 inhibitors [1]: sustained gain of sensitivity
- ex vivo drug sensitivity in AML patient cells with TP53 mutations ([3]; several patient specimens, 10 nM to 10 μM): relatively high sensitivity
- cell cycle effect [4]: G1 cell cycle blockade
- phosphorylation of NTRK and downstream MAPK signaling [5]: significant decreases in phosphorylation

Compound: O=C(Nc1cnn2ccc(N3CCC[C@@H]3c3cc(F)ccc3F)nc12)N1CC[C@H](O)C1 [larotrectinib]
- sensitivity to selective NTRK inhibitor ([2]; TP53 KO): profound gain of sensitivity

Compound: CNC(=O)c1cc(Oc2ccc(NC(=O)Nc3ccc(Cl)c(C(F)(F)F)c3)cc2)ccn1 [sorafenib]
- sensitivity to FLT3 inhibitors [1]: loss of sensitivity

Compound: CC1(C)CCC(CN2CCN(c3ccc(C(=O)NS(=O)(=O)c4ccc(NCC5CCOCC5)c([N+](=O)[O-])c4)c(Oc4cnc5[nH]ccc5c4)c3)CC2)=C(c2ccc(Cl)cc2)C1 [venetoclax]
- IC50 ([3]; Homo sapiens, AML, 289 patients, read-out: Median IC50, venetoclax sensitivity ex vivo, AML cohort): 100 nM
- median IC50 for AML relative to that for CLL ([3]; ex vivo patient samples, Beat AML cohort): 14 times
- share of AML specimens exhibiting sensitivity to venetoclax [3, 9]: about 40%
- IC50 ([6]; Homo sapiens, CLL, 141 patients, read-out: Median IC50, venetoclax sensitivity ex vivo, CLL cohort): 1400 nM
- share of CLL specimens exhibiting sensitivity to venetoclax [6, 9]: ~55%

Compound: carboyl cyanide m-chlorophenyl hydrazine [CCCP]
- loss of mitochondrial membrane potential in response to uncoupler [7]: less likely to lose mitochondrial membrane potential
- mitophagy in response to mitochondrial uncoupler [8]: less likely to undergo mitophagy or mitochondrial death
